Where “and” joins values, the source holds several entries; their conditions need not be identical. Equal entries are not always repeated.
Tests used:
[1] = system: myocardial cGMP; assay: Myocardial cyclic nucleotide levels; format: in vivo, mouse; conditions: for whole myocardial cGMP: acute intravenous administration
Description: Hearts were washed in ice-cold PBS, homogenized in 6% trichloroacetic acid, centrifuged and extracted with water-saturated ether. The aqueous layer was transferred, vacuum dried, and the pellet resuspended in sodium acetate buffer for cAMP and cGMP enzyme immunoassay (Amersham Pharmacia Biotech, Buckinghamshire, UK).

[2] = system: C57bl6 mice, isoproterenol-stimulated heart; assay: Acute isoproterenol-stimulated contractility in intact mice (pressure-volume relations); format: in vivo, mouse; conditions: acute intravenous administration
Description: Isoproterenol (ISO: 20 ng/kg/minutes i.v.×5 min) with or without PDE5A inhibitor was given to anesthetized intact mice, and in vivo heart function assessed by pressure-volume relations at a fixed atrial pacing rate of 600-650 min^−1. Data were measured at baseline, with ISO, re-baseline, PDE5A-inhibition, and PDE5A inhibition+ISO. The ISO-only response was highly reproducible.

[3] = system: C57BL/6 mice, pressure overload by transverse aortic constriction; assay: In vivo cardiac hemodynamics by pressure-volume analysis, TAC mice; set-up: species or system mouse; conditions: 3 wk TAC, compared with sildenafil results
Description: (§1) Pressure overload was produced by transverse aortic constriction.
Transthoracic two-dimensional guided M-mode echocardiography was performed in non-anesthetized mice. Measurements were done using an echocardiography system, the SEQUOIA C256 (Siemens, Munich, Del.) with the 15 MHz linear-array transducer. Intact heart hemodynamic analysis was performed as described^90. These studies employed a four-electrode pressure-volume catheter (model SPR-839, Millar Instruments) placed through the left ventricular apex in the open chest anesthetized animal and positioned along the longitudinal axis to record chamber volume by impedance and pressure by micromanometry.
All hemodynamic data were recorded using custom developed software, digitizing signals at 2 KHz. End-diastolic and end-systolic volumes were the average of volumes measured during isovolumic contraction and relaxation, respectively. ESP was the pressure at maximal chamber elastance (P/V ratio)^1. EDP was the diastolic pressure at the lower right hand corner of the pressure-volume loop. Cardiac output was determined from a perivascular flow probe (Transonics, Ithica, N.Y.) placed around the thoracic aorta. Ea was equal to the ratio of end-systolic pressure divided by stroke volume. The volume catheter signal was calibrated for both gain and offset. Gain was determined by setting the catheter-derived cardiac output (equal to pressure-volume loop width times heart rate) to that obtained from the calibrated flow probe value. Offset was determined using the hypertonic saline method Ventricular power was equal to the instantaneous product of pressure times flow, and the peak power was divided by EDV to obtain the power index PMXI^79. […] The slope of this relation Ees was normalized by heart mass and expressed per gm heart mass. Msw was derived from the linear relation between stroke work and EDV from the same set of variably loaded cardiac cycles used to derive Eesn, and is another load-independent assessment of systolic contractile function^4. Tau was obtained from the model: P=Po+ae^−t/□ . . . fitting data during isovolumic relaxation. dP/dt was derived from a digital filter (5-point weighted slope). PFR/EDV was derived from the maximal first derivative of the volume signal during early diastole, divided by EDV.

[4] = system: C57BL/6 mice, pressure overload by transverse aortic constriction; assay: TAC-induced cardiac hypertrophy, remodeling and fibrosis (heart weight/tibia length, histology); format: in vivo, mouse; conditions: TAC mice, concurrent oral treatment
Description: TAC induced marked heart chamber and cellular hypertrophy (+100% by 3-weeks) that progressed to chamber dilation with reduced fractional shortening after 9 weeks. […] TAC induced a time-dependent increase in myocardial fibrosis and myocyte hypertrophy and both were suppressed by PDE5A inhibition (FIG. 1C, e.g. 67% reduction in fibrosis in 9-week hearts, p<0.0001).
as §1
Hearts were fixed with 10% formalin overnight, then embedded in paraffin, sectioned at 5 μm thickness and stained with PAS methenamine. Cardiomyocyte diameter and interstitial collagen fraction were determined using computer-assisted image analysis (Adobe Photoshop 5.0, NIH Image J), with the observer blinded as to tissue source. At least 4-5 different hearts, with five separate fields of cells (total 50-70 cells for each heart) were quantified for cellular analysis.

[5] = system: C57bl6 mice, isoproterenol-induced hypertrophy; assay: Chronic isoproterenol infusion (osmotic pump) cardiac hypertrophy; format: in vivo, mouse; conditions: 2 weeks
Description: Acute increases in cardiac chamber contractility were induced by isoproterenol infusion in control C57b16 mice. The increase in cardiac systolic function was assessed by in vivo pressure-volume relations (FIG. 11E), and is reflected by a widening of the loop and shift of the upper left corner to the left. […] This supports the myocyte effects at the intact heart level. Furthermore, if isoproterenol is infused chronically by means of an implanted osmotic mini-pump, the heart responds by increasing the cardiac mass (hypertrophy) and with some dilation. This is shown for a group of control C57b16 mice (FIGS. 12A and 12B).

[6] = system: fetal gene expression; assay: Cardiac fetal gene expression (RNA dot blot) in TAC hearts; format: in vivo, mouse; conditions: 3 wk TAC
Description: RNA samples were prepared from snap-frozen hearts using a ready-to-use reagent for the isolation of total RNA TRIZOL reagent (Life Technology, Gaithersburg, Md.) according to the manufacturer's protocol. RNA dot-blot analysis was performed using a published protocol with a set of oligonucleotide probes^59. Data are shown normalized to GAPDH measured for each respective sample.

[7] = molecular target: purified PDE5A (Homo sapiens, UniProt O76074); conditions: cited from earlier work
[8] = system: ex vivo vascular rings; conditions: cited from earlier work
[9] = system: isolated adult murine myocytes; assay: Isoproterenol-stimulated contraction of isolated adult cardiac myocytes; format: cell-based, mouse; conditions: ODQ plus sildenafil plus ISO
Description: Louis, Mo.) for 6-7 min. Ventricles were gently chopped, filtered (150μ mesh), centrifuged (500 RPM×1 min), and rinsed in Tyrode's solution with increasing calcium (final 1.8 mM Ca^2+). Cells were incubated with 5 μM Indo-1 AM (Molecular Probes), rinsed, and studied at 27° C. by field stimulation in an inverted fluorescence microscope (Diaphot 200; Nikon, Inc). Sarcomere length (IonOptix, MA) and whole cell calcium transients were measured.

[10] = system: total cGMP-esterase activity; assay: cGMP-esterase (low Km cGMP phosphodiesterase) activity of heart and isolated myocytes; format: biochemical, mouse
[11] = system: PKG-1; assay: PKG-1 activity in isolated adult myocytes; format: cell-based, mouse
Description: After 10 min, cells were lysed and PKG-1 activity determined.

[12] = human, cited from earlier work
[13] = inhibitor combined with isoproterenol

CC[C@H](C)[C@@H]1NC(=O)[C@H](CCCNC(=N)N)NC(=O)[C@H](CC(=O)O)NC(=O)[C@H](CCSC)NC(=O)[C@H](CCCNC(=N)N)NC(=O)CNC(=O)CNC(=O)[C@H](Cc2ccccc2)NC(=O)[C@@H](NC(=O)[C@H](CO)NC(=O)[C@H](CO)NC(=O)[C@H](CCCNC(=N)N)NC(=O)[C@H](CCCNC(=N)N)NC(=O)[C@H](CC(C)C)NC(=O)[C@@H](N)CO)CSSC[C@@H](C(=O)N[C@@H](CC(N)=O)C(=O)N[C@@H](CO)C(=O)N[C@@H](Cc2ccccc2)C(=O)N[C@@H](CCCNC(=N)N)C(=O)N[C@@H](Cc2ccc(O)cc2)C(=O)O)NC(=O)CNC(=O)[C@H](CC(C)C)NC(=O)CNC(=O)[C@H](CO)NC(=O)[C@H](CCC(N)=O)NC(=O)[C@H](C)NC(=O)CNC1=O [ANP, atrial natriuretic peptide]
whole myocardial cGMP [1]: marked rise in myocardial cGMP | isoproterenol-stimulated contractility in intact heart [2]: had no effect on the ISO response in the intact heart

CCCc1nn(C)c2c(NCc3ccc(OC)c(Cl)c3)nc(COCC(=O)O)nc12 [EMD 360527, [7-(3-Chloro-4-methoxy-benzylamino)-1-methyl-3-propyl-1H-pyrazolo[4,3-d]pyrimidin-5-ylmethoxy]-acetic acid]
cardiac function by pressure-volume analysis [3]: near identical physiologic results | TAC-induced hypertrophy and chamber remodeling [4]: yielded identical findings | TAC-induced hypertrophy and chamber remodeling ([4]; listed as EMD360527): prevented the development of both cardiac hypertrophy and accompanying chamber dilation and remodeling | total myocardial cGMP ([1]; TAC hearts, chronic co-treatment): slight decline | whole myocardial cGMP [1]: negligible effect | development of cardiac hypertrophy [5]: markedly inhibited the development of cardiac hypertrophy | fetal gene expression [6]: reversed the TAC-induced rise in fetal gene expression | IC50 [7]: ~10 nM | IC50 [8]: 1000 nM

O=c1onc2cnc3ccccc3n12 [ODQ]
blunting of ISO response by sildenafil when sGC is inhibited [9]: prevented

CN1CC(=O)N2[C@H](c3ccc4c(c3)OCO4)c3[nH]c4ccccc4c3C[C@@H]2C1=O [tadalafil]
proportion of total cGMP-esterase activity attributable to PDE5 ([10]; 3 week TAC hearts): ~60% | percent of total cGMP-esterase activity blocked by co-incubation ([10]; sham control hearts (baseline)): approximately 30% | enhancement of PKG-1 activity ([11]; basal conditions, inhibitor alone): ~10% | rise in PKG-1 activity [11, 13]: 50% and 70% | rise in PKG-1 activity over ISO alone [11, 13]: 30% | time of peak plasma concentration post-dose ([12]; in vivo, po): two | apparent oral clearance (CL/F) [12]: 2.48 L/h | mean elimination half-life [12]: about 17.5 h

From patent US8299083B2, “PDE5 inhibitor compositions and methods for treating cardiac indications” (The Johns Hopkins University, priority 2004, dated 2012)
